Assay results published in patent publication US7902354B2, “Lapachone compounds and methods of use thereof” (ArQule, Inc., priority 2006, dated 2011).
pIC50: −log10 of the molar value.

Columns and labels:
[1] = system: NCM-460 normal colon epithelial cells; experiment: MTS cell viability assay, NCM-460 normal colon epithelial cells; type: cell-based; conditions: for pIC50: Homo sapiens, NCM460, NCM-460, 4 h compound incubation, MTS, read-out: IC50 Values, Normal Cells, Colon NCM-460; for Fold Selectivity (NCM-460/DLD1): ratio of IC50 NCM-460 / DLD1
[2] = system: K-562 human leukemia cells; experiment: MTS cell viability assay, K-562 human leukemia cells; type: cell-based; conditions: K562, K-562, 4 h compound incubation, MTS, read-out: IC50 Values, Cancerous Cells, Leukemia K-562
E2F-1 = E2F-1 induction in HT-29 cells; type: cell-based, human
Source text: Another effect of the compounds of the present invention is the induction or elevation of activity (e.g. elevation of the level) of one or more checkpoint molecules (i.e., a member of the E2F family of transcription factors). Studies have shown that β-lapachone induces activation of E2F1 checkpoint pathway in nuclei of cancer cells but not in normal cells, resulting in the arrest of cancer cells in G1 and/or S phase. Several compounds of the present invention were effective in activating the E2F1 checkpoint pathway (e.g. elevation of E2F1 levels), thus causing G1 and/or S phase arrest. Furthermore, the compounds of the present invention have no significant toxic effects on normal cells (See. Table 1). The assays of the present invention as shown in Table 1 and methods of measuring induction of E2F1 activity and elevation of E2F1 levels can be carried out following the descriptions found in Li et al., (2003) Proc Natl Acad Sci USA. 100(5): 2674-8 and U.S. Patent Application Publication No. 2002/0169135, both incorporated herein by reference.

[3] = system: DLD-1 human colon carcinoma cells; experiment: MTS cell viability assay, DLD-1 human colon carcinoma cells; type: cell-based; conditions: DLD-1, 4 h compound incubation, MTS, read-out: IC50 Values, Cancerous Cells, Colon DLD-1
[4] = system: HT-29 human colon carcinoma cells; experiment: MTS cell viability assay, HT-29 human colon carcinoma cells; type: cell-based; conditions: 4 h compound incubation, read-out: IC50 Values, Cancerous Cells, Colon HT-29
[5] = system: DU-145 human prostate carcinoma cells; experiment: MTS cell viability assay, DU-145 human prostate carcinoma cells; type: cell-based; conditions: DU-145, 4 h compound incubation, MTS, read-out: IC50 Values, Cancerous Cells, Prostate DU-145
[6] = system: A549 human lung carcinoma cells; experiment: MTS cell viability assay, A549 human lung carcinoma cells; type: cell-based; conditions: A549, 4 h compound incubation, MTS, read-out: IC50 Values, Cancerous Cells, Lung A549
[7] = system: PACA-2 human pancreatic carcinoma cells; experiment: MTS cell viability assay, PACA-2 human pancreatic carcinoma cells; type: cell-based; conditions: PACA-2, 4 h compound incubation, MTS, read-out: IC50 Values, Cancerous Cells, Pancreas PACA-2

Structure (SMILES) | pIC50 [2] | pIC50 [3] | pIC50 [4] | pIC50 [5] | pIC50 [6] | pIC50 [7] | pIC50 [1] | Fold Selectivity (NCM-460/DLD1) [1] | E2F-1 Induction (HT-29) (E2F-1)
O=C1C(=O)c2ccccc2C2=C1SCC1(CCN(C(=O)c3ccc(Cl)c(Cl)c3)CC1)O2 [Compound 53, 1′-(3,4-dichlorobenzoyl)spiro[naphtho[1,2-b][1,4]oxathiine-2,4′-piperidine]-5,6-dione] | 5.84 | 5.85 | 5.66 | 5.86 | 5.42 | 5.97 | 5.07 | 6.0 | YES
O=C1C(=O)c2ccccc2C2=C1SCC1(CCN(C(=O)c3cccc(Cl)c3)CC1)O2 [Compound 55, 1′-(3-chlorobenzoyl)spiro[naphtho[1,2-b][1,4]oxathiine-2,4′-piperidine]-5,6-dione] | 5.41 | 5.68 | 5.24 | 5.41 | 5.34 | 5.47 | 4.95 | 5.3 | Yes
O=C1C(=O)c2ccccc2C2=C1SCC1(CCN(C(=O)Oc3cccc(C(F)(F)F)c3)CC1)O2 [Compound 96, 3-(trifluoromethyl)phenyl 5,6-dioxo-5,6-dihydro-1′H-spiro[naphtho[1,2-b][1,4]oxathiine-2,4′-piperidine]-1′-carboxylate] | 4.44 | 4.50 | 4.69 | 4.70 | < 4.00 | 4.57 | 4.00 | 3.2 | Yes
CCc1ccc(OCC(O)CN2CCC3(CC2)CSC2=C(O3)c3ccccc3C(=O)C2=O)cc1 (centres unmarked) [Compound 170, 1′-[3-(4-ethylphenoxy)-2-hydroxypropyl]spiro[naphtho[1,2-b][1,4]oxathiine-2,4′-piperidine]-5,6-dione] | 5.27 | 5.83 |  | 5.85 | 5.33 | 5.86 | 4.85 | 9.4 | 
O=C1C(=O)c2ccccc2C2=C1SCC1(CCN(CC(O)COCc3ccccc3)CC1)O2 (centres unmarked) [Compound 171, 1′-[3-(benzyloxy)-2-hydroxypropyl]spiro[naphtho[12-b][1,4]oxathiine-2,4′-piperidine]-5,6-dione] | 5.44 | 5.87 |  | 5.49 | 5.18 | 5.84 | 5.01 | 7.2 | 
O=C1C(=O)c2ccccc2C2=C1SCC1(CCN(CC(O)COc3ccccc3Cl)CC1)O2 (centres unmarked) [Compound 172, 1′-[3-(2-chlorophenoxy)-2-hydroxypropyl]spiro[naphtho[1,2-b][1,4]oxathiine-2,4′-piperidine]-5,6-dione] | 5.83 | 5.87 |  | 5.81 | 5.21 | 5.96 | 5.26 | 4.1 | 
Cc1ccccc1OCC(O)CN1CCC2(CC1)CSC1=C(O2)c2ccccc2C(=O)C1=O (centres unmarked) [Compound 173, 1′-[2-hydroxy-3-(2-methylphenoxy)propyl]spiro[naphtho[1,2-b][1,4]oxathiine-2,4′-piperidine]-5,6-dione] | 5.39 | 5.83 |  | 5.53 | 5.15 | 5.85 | 4.99 | 6.9 | 
CC(C)COCC(O)CN1CCC2(CC1)CSC1=C(O2)c2ccccc2C(=O)C1=O (centres unmarked) [Compound 174, 1′-(2-hydroxy-3-isobutoxypropyl)spiro[naphtho[1,2-b][1,4]oxathiine-2,4′-piperidine]-5,6-dione] | 5.79 | 5.89 |  | 5.81 | 5.20 | 5.90 | 5.49 | 2.5 | 
COc1ccc(OCC(O)CN2CCC3(CC2)CSC2=C(O3)c3ccccc3C(=O)C2=O)cc1 (centres unmarked) [Compound 175, 1′-[2-hydroxy-3-(4-methoxyphenoxy)propyl]spiro[naphtho[1,2-b][1,4]oxathiine-2,4′-piperidine]-5,6-dione] | 5.49 | 5.85 |  | 5.80 | 5.14 | 5.86 | 5.21 | 4.3 | 

Continued, in another order:

pIC50 [2] | pIC50 [3] | pIC50 [4] | pIC50 [5] | pIC50 [6] | pIC50 [7] | Structure (SMILES) | pIC50 [1] | Fold Selectivity (NCM-460/DLD1) [1] | E2F-1 Induction (HT-29) (E2F-1)
5.32 | 5.62 |  | 5.61 | 5.29 | 5.52 | O=C1C(=O)c2ccccc2C2=C1SCC1(CCN(CC(O)COc3ccc(Cl)cc3)CC1)O2 (centres unmarked) [Compound 176, 1′-[3-(4-chlorophenoxy)-2-hydroxypropyl]spiro[naphtho[1,2-b][1,4]oxathiine-2,4′-piperidine]-5,6-dione] | 4.96 | 4.6 | 
5.05 | 5.21 |  | 5.34 | 4.83 | 5.38 | CC(O)(CN1CCC2(CC1)CSC1=C(O2)c2ccccc2C(=O)C1=O)c1ccccc1 (centres unmarked) [Compound 177, 1′-(2-hydroxy-2-phenylpropyl)spiro[naphtho[1,2-b][1,4]oxathiine-2,4′-piperidine]-5,6-dione] | 4.69 | 3.3 | 
5.38 | 5.37 |  | 5.33 | 4.65 | 5.36 | O=C1C(=O)c2ccccc2C2=C1SCC1(CCN(c3cnccn3)CC1)O2 [Compound 229, 1′-pyrazin-2-ylspiro[naphtho[1,2-b][1,4]oxathiine-2,4′-piperidine]-5,6-dione] | 4.89 | 3.0 | 
4.97 | 5.03 |  | 4.92 | 4.55 | 5.32 | O=C1C(=O)c2ccccc2C2=C1SCC1(CCN(C(=O)C3CCCCC3C(=O)O)CC1)O2 (centres unmarked) [Compound 231, 2-[(5,6-dioxo-5,6-dihydro-1′H-spiro[naphtho[1.2-b][1,4]oxathiine-2,4′-piperidin]-1′-yl)carbonyl]cyclohexanecarboxylic acid] | 4.91 | 1.3 | 
4.20 | 4.19 |  | 4.39 | < 4.00 | 4.25 | O=C(O)CCC(=O)N1CCC2(CC1)CSC1=C(O2)c2ccccc2C(=O)C1=O [Compound 233, 4-(5,6-dioxo-5,6-dihydro-1′H-spiro[naphtho[1,2-b][1,4]oxathiine-2,4′-piperidin]-1′-yl)-4-oxobutanoic acid] | 4.31 | 0.8 | 
< 4.00 | < 4.00 |  | < 4.00 | < 4.00 | 4.25 | O=C(O)CSCC(=O)N1CCC2(CC1)CSC1=C(O2)c2ccccc2C(=O)C1=O [Compound 234, {[2-(5,6-dioxo-5,6-dihydro-1′H-spiro[naphtho[1,2-b][1,4]oxathiine-2,4′-piperidine]-1′-yl)-2-oxoethyl]thio}acetic acid] | < 4.00 |  | 
4.28 | 4.16 |  | 4.26 | < 4.00 | 4.31 | O=C1C(=O)c2ccccc2C2=C1SCC1(CCN(C(=O)C3CCC3C(=O)O)CC1)O2 (centres unmarked) [Compound 235, 2-[(5,6-dioxo-5,6-dihydro-1′H-spiro[naphtho[1,2-b][1,4]oxathiine-2,4′-piperidin]-1′-yl)carbonyl]cyclobutanecarboxylic acid] | 4.07 | 1.2 | 
4.31 | 4.18 |  | 4.21 | < 4.00 | 4.32 | O=C1C(=O)c2ccccc2C2=C1SCC1(CCN(C(=O)c3cnccc3C(=O)O)CC1)O2 [Compound 237, 3-[(5,6-dioxo-5,6-dihydro-1′H-spiro[naphtho[1,2-b][1,4]oxathiine-2,4′-piperidin]-1′-yl)carbonyl]isonicotinic acid] | 4.03 | 1.4 | 
5.83 | 5.83 |  | 5.41 | 5.27 | 5.70 | O=C1C(=O)c2ccccc2C2=C1SCC1(CCN(C3CCCCC3)CC1)O2 [Compound 258, 1′-cyclohexylspiro[naphtho[1,2-b][1,4]oxathiine-2,4′-piperidine]-5,6-dione] | 5.23 | 4.0 | 
